Results reported in patent US6599748B1, “Hardness indicator composition and method of water hardness analysis” (Miura Co., Ltd., priority 1999, dated 2003).
Where two headings read alike, the source gives them in different places.

Key:
[1] = Ca chelate stability constant (chelating power with calcium); type: physicochemical
Text: […]. […] […].

[2] = Text: Therefore, the desensitizer to be added to the metal indicator is explained. […] However, the desensitizer differs from the metal indicator in that the metal indicator forms complex ions in combination with all hardness-component metal ions, while the desensitizer forms complex ions in combination with part of the hardness-component metal ions. […] Symbol “ ” in results represents usableness as the desensitizer, and “×” represents unusableness as the desensitizer.
Accordingly, Table 1 show the results of judgment determined by taking into account these conditions.

Molecule	Ca chelate stability constant, logK [1]	Ca chelate stability constant, logK ([1]; chelating power with calcium)	Solubility, g/100 g water [2]
O=C([O-])CC(O)(CC(=O)O)C(=O)[O-].[K+].[K+] [2K citrate]	<2.0		
O=C([O-])CNCC(=O)[O-].[K+].[K+] [2K iminodiacetate]	2.59		
O=C([O-])CC(O)(CC(=O)[O-])C(=O)[O-].[Na+].[Na+].[Na+] [2Na citrate, sodium citrate]		<2.0	
O=C([O-])CNCC(=O)[O-].[Na+].[Na+] [2Na iminodiacetate, sodium iminodiacetate]	2.59		10 g/100 g water
sodium polyacrylate [Na polyacrylate]	<2.0		over 40 g/100 g water
